Test results published in PMC12408761, “Impact of physical activity on ethoxy- and propoxypropanol human toxicokinetics in vivo” (Archives of Toxicology, 2025).
Like-named read-outs stand apart in the source and are kept apart here.

Key:
[1] = Controlled human inhalation exposure (4 h in exposure chamber, at rest or with moderate physical activity): toxicokinetics in blood, urine and exhaled breath; format: in vivo; conditions: for Time at which Cmax was reached (Tmax): time after start of exposure; for average Cmax in exhaled breath: for a same concentration of exposure; for Time at which Cmax was reached: urine and exhaled breath; for Increase of urinary absorption rate with physical activity versus rest: first 2 h of exposure
Method: All exposure sessions were performed under controlled conditions at the Department of Occupational and Environmental Health, Center for Primary Care and Public Health (Unisanté), University of Lausanne, in Switzerland. PGEE or PGPE air concentrations were generated in a 12 m^3 exposure chamber (Guillemin [1975]) and monitored electronically (Lab VIEW software, National Instruments Corporation, Texas, USA) with a portable infrared spectroscopy gas analyzer for ambient air analysis (GASMET™ analyzer DX-4040 Gasmet Oy, Helsinki technologies, Finland) (Devanthery et al. [2003]; Tomicic et al. [2011]). During each exposure session, the participant spent 4 h inside the exposure chamber, and then 2 h outside in a solvent-free area. Each participant took part in four different exposure sessions comprising four different experimental conditions. Three sessions were performed at rest at either 25, 30, and 35 ppm of PGEE or 15, 20, and 25 ppm of PGPE. The fourth session was performed with moderate physical activity at 35 ppm of PGEE or 25 ppm of PGPE (Fig. 1).
The air concentrations were below the existing OEL for PGEE, i.e., 50 ppm. Given the absence of an OEL for PGPE, the chosen concentrations were previously tested to ensure odor tolerance for participants. The participants performed the physical activity at 1.5 W/kg on an ergonomic bicycle (Corival, Lode B.V., Groningen, The Netherlands) for 30 min twice during the same exposure session: the first without solvent exposure and the second with PGEE or PGPE. The physical activity design was adapted after discussion with sports science researchers from the University of Lausanne. A minimum of 48 h between two exposure sessions was determined to avoid possible cumulative exposure (Borgatta et al. [2022]). Blood, urine, and exhaled breath samples were collected before, during, and after all exposure sessions. The timing of sample collection was based on previous studies and protocol testing.
The blood samples were collected with an intravenous catheter inserted in the participant’s forearm by a research nurse into glass tubes (Vacutainers® NH Heparine Sodium, Becton Dickinson AG, Basel, Switzerland). A first blood sample was collected before the exposure session in a solvent-free area and used as baseline value. The timing following the first blood sample was 30, 120, 180, 240, 255, 300, and 360 min after the exposure to PGE started. The last blood sample was collected 24 h post-exposure. The blood samples were kept in the dark at 4 °C until analysis.
The participants were asked to provide a urine sample before the exposure session (solvent-free area, baseline) and then, every 2 h over 6 h. The participants continued to collect their urine (ad lib) samples at home for additional 24 h and bring them back in a cooler with cooling elements the day after the exposure session. They provided urine collection date, time, and total urinary volume. All urine samples were stored in polypropylene cups in the dark at 4 °C (Borgatta et al. [2021]). The cold storage is important to avoid any loss of substance as glycol ethers are volatile organic compounds.
The exhaled breath samples were collected using a non-invasive simple-to-use device for biological exposure monitoring of volatile organic compounds (BioVOC-2 Breath Sampler, Brechbühler, Schlieren, Switzerland). The last portion of expired breath (129 mL) was collected on thermal desorption (TD) tubes (Tenax® TA, Camsco, Böckten, Switzerland) from each participant. A first exhaled breath sample was collected before the exposure session in a solvent-free area (baseline). The timing following the first exhaled breath sample was 120, 240, 255, 260, 265, 270, 275 and 360 min after exposure had started and a last one 24 h post exposure. Exhaled breath samples were analyzed immediately after collection. […]

[2] = set-up: method as in Groeseneken et al. [1986], [1987]; conditions: humans; ref Groeseneken et al. [1986], [1987]; cited from earlier work
[3] = blood, at rest, 4 h inhalation, geometric mean ± SD
[4] = blood, physical activity, 35 ppm PGEE or 25 ppm PGPE, geometric mean ± SD
[5] = human, inhaled or intranasal, blood, at rest, 4 h inhalation (PGEE 25-35 ppm, PGPE 15-25 ppm), geometric mean ± SD
[6] = human, inhaled or intranasal, blood, at rest, 4 h inhalation, geometric mean ± SD, read-out: Cmax
[7] = human, inhaled or intranasal, urine, at rest, 4 h inhalation (PGEE 25-35 ppm, PGPE 15-25 ppm), geometric mean ± SD
[8] = human, inhaled or intranasal, urine, at rest, 4 h inhalation, geometric mean ± SD, read-out: Cmax
[9] = human, inhaled, blood, at rest, for a same concentration of exposure (25 ppm), read-out: average Cmax in blood
[10] = human, inhaled, blood, at rest, read-out: half-life in blood
[11] = human, inhaled, blood, physical activity (30 min, 1.5 W/kg), 35 ppm PGEE or 25 ppm PGPE, geometric mean ± SD
[12] = human, inhaled, blood, physical activity, 35 ppm PGEE or 25 ppm PGPE, geometric mean ± SD, read-out: Cmax
[13] = human, inhaled, exhaled breath, all exposure conditions, read-out: Half-life (converted)
[14] = human, inhaled, urine, physical activity (30 min, 1.5 W/kg), 35 ppm PGEE or 25 ppm PGPE, geometric mean ± SD
[15] = human, inhaled, urine, physical activity, 35 ppm PGEE or 25 ppm PGPE, geometric mean ± SD, read-out: Cmax
[16] = urine, at rest, 4 h inhalation, geometric mean ± SD
[17] = urine, physical activity, 35 ppm PGEE or 25 ppm PGPE, geometric mean ± SD

For `CCOCC(C)O` (centres unmarked) [PGEE, propylene glycol ethyl ether], the “Absorption (absorption rate)” value [1, 3] was 0.013 ± 0 µg/mL/h*ppm, the “Time at which Cmax was reached (Tmax)” value ([1]; blood, at rest) was 240 min and the “Absorption (absorption rate)” value [1, 4] was 0.038 ± 0.004 µg/mL/h*ppm. For the same molecule, the “Blood concentration following PGEE exposure compared to PGPE” value ([1]; blood, same concentration of exposure (25 ppm)) was 1.3 fold, the “Share of total blood uptake quantified in exhaled breath (AUC exhaled breath / AUC blood)” value ([1]; exhaled breath) was “less than 0.5%” and the “average Cmax in exhaled breath” value ([1]; exhaled breath, at rest) was 2.81 ± 0.76 ppm. The AUC [1, 5] was 7320 ng·h/mL, the Cmax [1, 6] was 1070 ± 300 ng/mL and the AUC [1, 7] was 5050 ng·h/mL. It also gave a Cmax [1, 8] of 1070 ± 210 ng/mL, a Cmax [1, 9] of 810 ± 80 ng/mL and a half-life [1, 10] of 60 min. It also gave an AUC [1, 11] of 16600 ng·h/mL, a Cmax [1, 12] of 2760 ± 260 ng/mL and a half-life [1, 13] of 2.88 min. It also gave a half-life ([1]; human, inhaled, urine, all exposure conditions, read-out: Half-life (converted)) of 78 min, an AUC [1, 14] of 8820 ng·h/mL and a Cmax [1, 15] of 1810 ± 470 ng/mL. For the same molecule, the “Time at which Cmax was reached” value ([1]; all conditions) was “at the end of exposure”, the “Absorption (absorption rate)” value [1, 16] was 0.010 ± 0.002 µg/mL/h*ppm and the “Increase of urinary absorption rate with physical activity versus rest” value ([1]; urine) was 1.5 times. The “Absorption (absorption rate)” value [1, 17] was 0.014 ± 0.003 µg/mL/h*ppm.

In the case of `CCCOCC(C)O` (centres unmarked) [PGPE, propylene glycol propyl ether], the “Absorption (absorption rate)” value [1, 3] is reported as 0.011 ± 0 µg/mL/h*ppm, the “Time at which Cmax was reached (Tmax)” value ([1]; blood, at rest) is reported as 180 min and the “Absorption (absorption rate)” value [1, 4] is reported as 0.024 ± 0.002 µg/mL/h*ppm. For the same molecule, the “Share of total blood uptake quantified in exhaled breath (AUC exhaled breath / AUC blood)” value ([1]; exhaled breath) was 1.1%, the “average Cmax in exhaled breath” value ([1]; exhaled breath, at rest) was 2.25 ± 0.66 ppm and the AUC [1, 5] was 2650 ng·h/mL. The Cmax [1, 6] was 500 ± 130 ng/mL, the AUC [1, 7] was 1910 ng·h/mL and the Cmax [1, 8] was 450 ± 110 ng/mL. It also gave a Cmax [1, 9] of 650 ± 90 ng/mL, a half-life [1, 10] of 54 min and an AUC [1, 11] of 5130 ng·h/mL. For the same molecule, the Cmax [1, 12] was 1230 ± 90 ng/mL, the half-life [1, 13] was 2.28 min and the half-life ([1]; human, inhaled, urine, all conditions, read-out: urinary half-life) was 54 min. For the same molecule, the AUC [1, 14] was 3090 ng·h/mL, the Cmax [1, 15] was 710 ± 140 ng/mL and the “Share of total blood uptake quantified in urine (AUC urine / AUC blood)” value ([1]; urine) was 69.5%. For the same molecule, the “Time at which Cmax was reached” value ([1]; all conditions) was “at the end of exposure”, the half-life ([1]; urine, all exposure conditions) was 54 min and the “Absorption (absorption rate)” value [1, 16] was 0.007 ± 0.0017 µg/mL/h*ppm. For the same molecule, the “Increase of urinary absorption rate with physical activity versus rest” value ([1]; urine) was “did not differ significantly” and the “Absorption (absorption rate)” value [1, 17] was 0.0087 ± 0.0008 µg/mL/h*ppm.

In the case of `CCOCCO` [EGEE, ethylene glycol ethyl ether], the “exhalation as share of the total uptake” value [2] is listed as “less than 0.4%”.

In the case of `CCOCCOC(C)=O` [EGEEAc], the “exhalation as share of the total uptake” value [2] is listed as “less than 0.4%”.
